Data from ChEMBL document CHEMBL1201862, “PubChem BioAssay data set” (2004).
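48-hour exposure; five concentrations; linearly interpolated endpoints. At the GI50, growth is halved.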 The source made the active and inactive calls. No stated cut-off is given here; in the data, active = GI50 up to about 1.1 µM and inactive = higher.

Assays:
Assay in all cases: DTP human tumour cell line panel, 48 h
MDA-MB-435 = system: MDA-MB-435
NCI-H226 = system: NCI-H226
PC-3 = system: PC-3
IGROV-1 = system: IGROV-1
CAKI-1 = system: CAKI-1
OVCAR-5 = system: OVCAR-5
HCT-116 = system: HCT-116
T47D = system: T47D
Hs-578T = system: Hs-578T
UO-31 = system: UO-31
MDA-MB-231 = system: MDA-MB-231
DU-145 = system: DU-145
OVCAR-3 = system: OVCAR-3
NCI/ADR-RES = system: NCI/ADR-RES
HOP-92 = system: HOP-92
HOP-62 = system: HOP-62
KM12 = system: KM12
HL-60 = system: HL-60
COLO 205 = system: COLO 205
LOX IMVI = system: LOX IMVI
SW-620 = system: SW-620
786-0 = system: 786-0
MCF7 = system: MCF7
SK-MEL-5 = system: SK-MEL-5
HT-29 = system: HT-29
K562 = system: K562
M14 = system: M14
TK-10 = system: TK-10
SNB-19 = system: SNB-19
MOLT-4 = system: MOLT-4
A498 = system: A498
SK-MEL-2 = system: SK-MEL-2
SF-268 = system: SF-268
UACC-257 = system: UACC-257
NCI-H23 = system: NCI-H23
SK-MEL-28 = system: SK-MEL-28
SF-295 = system: SF-295
SF-539 = system: SF-539
MDA-N = system: MDA-N
Malme-3M = system: Malme-3M
EKVX = system: EKVX
HCT-15 = system: HCT-15
RXF 393 = system: RXF 393
NCI-H522 = system: NCI-H522
OVCAR-4 = system: OVCAR-4
SK-OV-3 = system: SK-OV-3
SN12C = system: SN12C
RPMI-8226 = system: RPMI-8226
OVCAR-8 = system: OVCAR-8
SNB-75 = system: SNB-75
ACHN = system: ACHN
A549 = system: A549
U-251 = system: U-251
CCRF-CEM = system: CCRF-CEM
HCC 2998 = system: HCC 2998
NCI-H460 = system: NCI-H460

CCCCCCCCCC(O)CC(=O)c1c(O)cccc1O (configuration not stated)
GI50 (MDA-MB-435): 25.9 µM (inactive)
GI50 (NCI-H226): 17.4 µM (inactive)
GI50 (PC-3): 18.7 µM (inactive)
GI50 (IGROV-1): 18.8 µM (inactive)
GI50 (CAKI-1): 21.7 µM (inactive)
GI50 (OVCAR-5): 18.7 µM (inactive)
GI50 (HCT-116): 20.1 µM (inactive)
GI50 (T47D): 25.2 µM (inactive)
GI50 (Hs-578T): 18.6 µM (inactive)
GI50 (UO-31): 19.3 µM (inactive)
GI50 (MDA-MB-231): 21.4 µM (inactive)
GI50 (DU-145): 38 µM (inactive)
GI50 (OVCAR-3): 21.9 µM (inactive)
GI50 (NCI/ADR-RES): 18.4 µM (inactive)
GI50 (HOP-92): 25.4 µM (inactive)
GI50 (HOP-62): 16 µM (inactive)
GI50 (KM12): 19.3 µM (inactive)
GI50 (HL-60): 22.2 µM (inactive)
GI50 (COLO 205): 30.1 µM (inactive)
GI50 (LOX IMVI): 20.4 µM (inactive)
GI50 (SW-620): 39.5 µM (inactive)
GI50 (786-0): 19.1 µM (inactive)
GI50 (MCF7): 26.8 µM (inactive)
GI50 (SK-MEL-5): 19 µM (inactive)
GI50 (HT-29): 19.5 µM (inactive)
GI50 (K562): 22.1 µM (inactive)
GI50 (M14): 20.1 µM (inactive)
GI50 (TK-10): 21.8 µM (inactive)
GI50 (SNB-19): 29.9 µM (inactive)
GI50 (MOLT-4): 19.5 µM (inactive)
GI50 (A498): 30.5 µM (inactive)
GI50 (SK-MEL-2): 18.4 µM (inactive)
GI50 (SF-268): 17.7 µM (inactive)
GI50 (UACC-257): 19.5 µM (inactive)
GI50 (NCI-H23): 22 µM (inactive)
GI50 (SK-MEL-28): 41.5 µM (inactive)
GI50 (SF-295): 19.4 µM (inactive)
GI50 (SF-539): 20.3 µM (inactive)
GI50 (MDA-N): 22 µM (inactive)
GI50 (Malme-3M): 16 µM (inactive)
GI50 (EKVX): 21.9 µM (inactive)
GI50 (HCT-15): 18.2 µM
GI50 (RXF 393): 16.9 µM (inactive)
GI50 (NCI-H522): 19 µM (inactive)
GI50 (OVCAR-4): 16.7 µM (inactive)
GI50 (SK-OV-3): 20 µM (inactive)
GI50 (SN12C): 31.3 µM (inactive)
GI50 (RPMI-8226): 20.6 µM (inactive)
GI50 (OVCAR-8): 18.8 µM (inactive)
GI50 (SNB-75): 18.7 µM (inactive)
GI50 (ACHN): 24.1 µM (inactive)
GI50 (A549): 23.6 µM (inactive)
GI50 (U-251): 36.7 µM (inactive)
GI50 (CCRF-CEM): 46.3 µM (inactive)
GI50 (HCC 2998): 12.4 µM (inactive)

CN(C)c1ccc(/C=C/c2ccc(S(N)(=O)=O)cc2)cc1
GI50 (PC-3): 14.8 µM (inactive)
GI50 (OVCAR-5): 18 µM (inactive)
GI50 (HCT-116): 23.1 µM (inactive)
GI50 (T47D): 27 µM (inactive)
GI50 (UO-31): 17.7 µM (inactive)
GI50 (MDA-MB-231): 13.5 µM (inactive)
GI50 (DU-145): 13.6 µM (inactive)
GI50 (OVCAR-3): 20.4 µM (inactive)
GI50 (NCI/ADR-RES): 14.8 µM (inactive)
GI50 (HOP-62): 18.7 µM (inactive)
GI50 (COLO 205): 24.5 µM (inactive)
GI50 (SW-620): 11.1 µM (inactive)
GI50 (786-0): 16.9 µM (inactive)
GI50 (MCF7): 13.4 µM (inactive)
GI50 (SK-MEL-5): 11.3 µM (inactive)
GI50 (M14): 15.8 µM (inactive)
GI50 (TK-10): 20.5 µM (inactive)
GI50 (SNB-19): 20.2 µM (inactive)
GI50 (A498): 17.7 µM (inactive)
GI50 (SK-MEL-2): 28.2 µM (inactive)
GI50 (UACC-257): 46.5 µM (inactive)
GI50 (SK-MEL-28): 11.5 µM (inactive)
GI50 (SF-295): 24.3 µM (inactive)
GI50 (MDA-N): 11.8 µM (inactive)
GI50 (Malme-3M): 14 µM (inactive)
GI50 (EKVX): 21.8 µM (inactive)
GI50 (RXF 393): 20.7 µM (inactive)
GI50 (SK-OV-3): 17 µM (inactive)
GI50 (NCI-H460): 14.9 µM (inactive)
GI50 (SN12C): 20.4 µM (inactive)
GI50 (SNB-75): 22.7 µM (inactive)
GI50 (HCC 2998): 34 µM (inactive)
